From ChEMBL document CHEMBL1136087, “Synthesis of radiolabeled biphenylsulfonamide matrix metalloproteinase inhibitors as new potential PET cancer imaging agents” (Bioorg Med Chem Lett, 2003)

These molecules were tested against Collagenase 3 (Homo sapiens) (UniProt P45452) (assay: Inhibition of human matrix metalloprotease-13 at 20 nM).
`CC(C)[C@H](NS(=O)(=O)c1ccc(-c2ccc([N+](=O)[O-])cc2)cc1)C(=O)O` was tested, and the Inhibition effect was 0.897.
With `COC(=O)[C@@H](NS(=O)(=O)c1ccc(-c2ccccc2F)cc1)C(C)C` the Inhibition effect was 0.922.
`COC(=O)[C@@H](NS(=O)(=O)c1ccc(-c2ccccc2OC)cc1)C(C)C` showed an Inhibition effect of 0.942.
With `COC(=O)[C@@H](NS(=O)(=O)c1ccc(-c2ccc(OC)cc2)cc1)C(C)C` the Inhibition effect was 0.935.
With `COC(=O)[C@@H](NS(=O)(=O)c1ccc(-c2cccc(OC)c2)cc1)C(C)C` the Inhibition effect was 0.939.
Molecule `CC(C)[C@H](NS(=O)(=O)c1ccc(-c2ccc(F)cc2)cc1)C(=O)O` has an Inhibition effect of 0.918.
`COC(=O)[C@@H](NS(=O)(=O)c1ccc(-c2cccc(F)c2)cc1)C(C)C` showed an Inhibition effect of 0.919.
Work on `COC(=O)[C@@H](NS(=O)(=O)c1ccc(-c2ccc([N+](=O)[O-])cc2)cc1)C(C)C` yielded an Inhibition effect of 0.883.
`COC(=O)[C@@H](NS(=O)(=O)c1ccc(-c2ccc(F)cc2)cc1)C(C)C` gave an Inhibition effect of 0.91.
Work on `COc1ccc(-c2ccc(S(=O)(=O)N[C@H](C(=O)O)C(C)C)cc2)cc1` yielded an Inhibition effect of 0.938.
